Measured values from patent publication US20060148907A1, “Topical antinflammatory preparations of y-terpinene” (priority 2002, published 2006).
Entries after “also recorded” stand apart in the source; their conditions may differ. Like-named read-outs stand apart in the source and are kept apart here.

Assays:
[1] = system: skin erythemal response induced by solar simulated UV on the dorsal skin of human subjects; assay: Human study: reduction of skin erythemal response induced by solar simulated UV; assay type: in vivo; conditions: for Reduction in Erythema vs Base: 4 mg/sq cm immediately after irradiation and 4-5 hours later, erythema read 16-24 hours later; for statistical difference from the Base and UV alone (MED): p<0.05
[2] = system: carrageenan induced hind paw edema; conditions: cited from earlier work
[3] = cited from earlier work
[4] = 0.25% in BP 1988 Cetomacrogol Cream
[5] = 0.5% in BP 1988 Cetomacrogol Cream
[6] = 1% (1.0%) in BP 1988 Cetomacrogol Cream

Compound | Reduction in Erythema vs Base [1, 4] [%] | Reduction in Erythema vs Base [1, 5] [%] | Reduction in Erythema vs Base [1, 6] [%] | anti-inflammatory effectiveness in words (compared to Indomethacin) ([1]; 1% (1.0%) product) | anti-inflammatory effectiveness in words (compared to Indomethacin) ([1]; 0.25% product) | other results
CC(C)=CCC[C@](C)(O)[C@@H]1CC=C(C)CC1 [(−) alpha-Bisabolol, (−)-alpha-bisabolol, reference compound] | 10 | 44 | – | – | – | statistical difference from the Base and UV alone (MED) ([1]; 0.50% product): statistically different
COc1ccc2c(c1)c(CC(=O)O)c(C)n2C(=O)c1ccc(Cl)cc1 [Indomethacin, reference compound] | – | – | 66 | most effective anti-inflammatory | – | –
CC1=CCC(O)(C(C)C)CC1 (stereo not drawn) [Terpinen-4-ol, terpinen-4-ol, reference compound] | 7 | 45 | – | good performance status | – | anti-inflammatory activity ([2]; dosages from 0.03 mg/paw to 6.0 mg/paw): significant anti-inflammatory activity; acute oral LD50 [3]: 1300 mg/kg
CC1=CC=C(C(C)C)CC1 [α-terpinene] | 58 | – | – | – | good performance status | anti-inflammatory activity (inhibition of edema formation) ([2]; highest dose tested, 6 mg/paw): significant anti-inflammatory activity; anti-inflammatory activity (inhibition of edema formation) ([2]; lesser dosages than 6 mg/paw): relatively weak
CC1=CCC(C(C)C)=CC1 [γ-terpinene] | 52 | 29 | 32 | statistically similar | high effective anti-inflammatory | statistical difference from the Base and UV alone (MED) ([1]; 0.25% product): statistically different; more erythema than Indomethacin ([1]; 1.0% product vs 1% Indomethacin): 98%; reducing UV erythema (MED) ([1]; 1.0% product vs UV alone (MED)): 39%; statistical difference from the Base and UV alone (MED) ([1]; 1.0% product): not significantly different from the Base; also recorded: significantly different from the MED; anti-inflammatory activity ([2]; dose not given): ineffective; also recorded: did not exhibit any significant anti-inflammatory activity
